# From the kinase profiling compilation of Christmann-Franck et al. (2016)
# Experiments:
# Experiment in all cases: SelectScreen, TR FRET
# Details in all cases: compound 5.0 µM
# FYN (human) = FYN (human) (UniProt P06241)
# [1] = tested on: ABL1 (human), P00519 [Y253F]
# CSNK1A1 (human) = CSNK1A1 (human) (UniProt P48729)
# CSNK1D (human) = CSNK1D (human) (UniProt P48730)
# [2] = tested on: FLT3 (human), P36888 [D835Y]
# PAK6 (human) = PAK6 (human) (UniProt Q9NQU5)
# RET (human) = RET (human) (UniProt P07949)
# FLT4 (human) = FLT4 (human) (UniProt P35916)
# PRKX (human) = PRKX (human) (UniProt P51817)
# CLK1 (human) = CLK1 (human) (UniProt P49759)
# MAPKAPK2 (human) = MAPKAPK2 (human) (UniProt P49137)
# RPS6KB1 (human) = RPS6KB1 (human) (UniProt P23443)
# TBK1 (human) = TBK1 (human) (UniProt Q9UHD2)
# EPHB4 (human) = EPHB4 (human) (UniProt P54760)
# PRKCZ (human) = PRKCZ (human) (UniProt Q05513)
# NTRK3 (human) = NTRK3 (human) (UniProt Q16288)
# FGFR1 (human) = FGFR1 (human) (UniProt P11362)
# MAP4K2 (human) = MAP4K2 (human) (UniProt Q12851)
# DYRK4 (human) = DYRK4 (human) (UniProt Q9NR20)
# MATK (human) = MATK (human) (UniProt P42679)
# [3] = tested on: ABL1 (human), P00519 [T315I]
# PRKCQ (human) = PRKCQ (human) (UniProt Q04759)
# EPHA4 (human) = EPHA4 (human) (UniProt P54764)
# [4] = tested on: EGFR (human), P00533 [L861Q]
# PDGFRA (human) = PDGFRA (human) (UniProt P16234)
# GRK6 (human) = GRK6 (human) (UniProt P43250)
# FGFR4 (human) = FGFR4 (human) (UniProt P22455)
# MAPK11 (human) = MAPK11 (human) (UniProt Q15759)
# YES1 (human) = YES1 (human) (UniProt P07947)
# MAP2K1 (human) = MAP2K1 (human) (UniProt Q02750)
# RPS6KA4 KD1 KD2 (human) = RPS6KA4 KD1 KD2 (human) (UniProt O75676)
# SGK1 (human) = SGK1 (human) (UniProt O00141)
# PIM2 (human) = PIM2 (human) (UniProt Q9P1W9)
# [5] = tested on: KIT (human), P10721 [T670I]
# PDPK1 (human) = PDPK1 (human) (UniProt O15530)
# CSNK2A2 (human) = CSNK2A2 (human) (UniProt P19784)
# ADRBK2 (human) = ADRBK2 (human) (UniProt P35626)
# MERTK (human) = MERTK (human) (UniProt Q12866)
# EPHB2 (human) = EPHB2 (human) (UniProt P29323)
# PIM1 (human) = PIM1 (human) (UniProt P11309)
# CSNK2A2 (human), sequence (P19784 whole entry, looked up): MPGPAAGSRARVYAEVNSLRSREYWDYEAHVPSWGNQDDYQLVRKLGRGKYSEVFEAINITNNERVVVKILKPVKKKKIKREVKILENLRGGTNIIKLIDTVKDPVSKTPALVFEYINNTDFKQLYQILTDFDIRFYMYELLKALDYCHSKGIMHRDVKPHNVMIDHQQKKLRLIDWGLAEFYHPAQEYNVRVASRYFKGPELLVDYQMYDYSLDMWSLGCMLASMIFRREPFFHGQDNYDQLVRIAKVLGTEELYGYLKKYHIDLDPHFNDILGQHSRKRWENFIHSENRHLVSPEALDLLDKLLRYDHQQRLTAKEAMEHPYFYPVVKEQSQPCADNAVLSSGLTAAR
# FYN (human), sequence (P06241 whole entry, looked up): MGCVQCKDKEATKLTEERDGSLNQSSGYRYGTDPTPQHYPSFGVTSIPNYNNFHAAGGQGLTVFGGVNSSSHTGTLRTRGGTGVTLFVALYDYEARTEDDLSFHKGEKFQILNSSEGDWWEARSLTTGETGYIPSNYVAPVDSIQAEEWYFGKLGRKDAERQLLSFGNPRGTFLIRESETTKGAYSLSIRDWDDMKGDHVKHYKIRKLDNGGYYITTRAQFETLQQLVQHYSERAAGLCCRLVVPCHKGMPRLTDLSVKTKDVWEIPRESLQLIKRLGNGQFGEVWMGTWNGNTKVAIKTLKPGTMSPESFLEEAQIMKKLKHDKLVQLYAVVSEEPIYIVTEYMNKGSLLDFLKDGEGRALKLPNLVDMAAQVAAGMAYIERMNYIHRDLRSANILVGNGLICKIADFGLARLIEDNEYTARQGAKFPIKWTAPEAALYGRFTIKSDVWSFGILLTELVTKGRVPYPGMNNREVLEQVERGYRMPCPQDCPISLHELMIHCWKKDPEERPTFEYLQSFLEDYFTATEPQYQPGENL
# PAK6 (human), sequence (Q9NQU5 whole entry, looked up): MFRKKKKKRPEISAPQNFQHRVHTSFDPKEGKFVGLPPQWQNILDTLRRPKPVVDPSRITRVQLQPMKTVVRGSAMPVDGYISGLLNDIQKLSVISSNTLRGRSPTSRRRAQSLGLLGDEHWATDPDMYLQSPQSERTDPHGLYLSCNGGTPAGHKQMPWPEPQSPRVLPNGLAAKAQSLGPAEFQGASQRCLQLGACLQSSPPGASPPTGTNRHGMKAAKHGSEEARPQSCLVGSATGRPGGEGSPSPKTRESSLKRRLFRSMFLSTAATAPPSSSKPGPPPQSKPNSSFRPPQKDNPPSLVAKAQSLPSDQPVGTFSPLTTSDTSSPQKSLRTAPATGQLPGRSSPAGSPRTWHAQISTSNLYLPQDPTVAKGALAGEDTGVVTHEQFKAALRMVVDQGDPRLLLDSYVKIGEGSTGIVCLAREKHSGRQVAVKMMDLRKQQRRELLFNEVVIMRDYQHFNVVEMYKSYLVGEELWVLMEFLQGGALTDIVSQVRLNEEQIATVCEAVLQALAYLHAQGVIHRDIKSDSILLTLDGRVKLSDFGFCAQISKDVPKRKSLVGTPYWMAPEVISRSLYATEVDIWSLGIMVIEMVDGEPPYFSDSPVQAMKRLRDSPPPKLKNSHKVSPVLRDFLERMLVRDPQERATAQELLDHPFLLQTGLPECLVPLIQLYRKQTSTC
# PIM2 (human), sequence (Q9P1W9 whole entry, looked up): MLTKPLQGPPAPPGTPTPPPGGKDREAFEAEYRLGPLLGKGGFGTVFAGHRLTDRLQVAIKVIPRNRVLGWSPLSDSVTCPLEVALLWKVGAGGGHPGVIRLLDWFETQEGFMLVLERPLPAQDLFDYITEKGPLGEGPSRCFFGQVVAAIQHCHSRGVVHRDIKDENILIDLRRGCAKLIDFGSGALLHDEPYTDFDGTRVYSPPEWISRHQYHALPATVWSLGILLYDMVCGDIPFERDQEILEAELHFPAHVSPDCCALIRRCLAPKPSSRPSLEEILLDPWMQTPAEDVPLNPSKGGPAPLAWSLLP
# FGFR1 (human), sequence (P11362 whole entry, looked up): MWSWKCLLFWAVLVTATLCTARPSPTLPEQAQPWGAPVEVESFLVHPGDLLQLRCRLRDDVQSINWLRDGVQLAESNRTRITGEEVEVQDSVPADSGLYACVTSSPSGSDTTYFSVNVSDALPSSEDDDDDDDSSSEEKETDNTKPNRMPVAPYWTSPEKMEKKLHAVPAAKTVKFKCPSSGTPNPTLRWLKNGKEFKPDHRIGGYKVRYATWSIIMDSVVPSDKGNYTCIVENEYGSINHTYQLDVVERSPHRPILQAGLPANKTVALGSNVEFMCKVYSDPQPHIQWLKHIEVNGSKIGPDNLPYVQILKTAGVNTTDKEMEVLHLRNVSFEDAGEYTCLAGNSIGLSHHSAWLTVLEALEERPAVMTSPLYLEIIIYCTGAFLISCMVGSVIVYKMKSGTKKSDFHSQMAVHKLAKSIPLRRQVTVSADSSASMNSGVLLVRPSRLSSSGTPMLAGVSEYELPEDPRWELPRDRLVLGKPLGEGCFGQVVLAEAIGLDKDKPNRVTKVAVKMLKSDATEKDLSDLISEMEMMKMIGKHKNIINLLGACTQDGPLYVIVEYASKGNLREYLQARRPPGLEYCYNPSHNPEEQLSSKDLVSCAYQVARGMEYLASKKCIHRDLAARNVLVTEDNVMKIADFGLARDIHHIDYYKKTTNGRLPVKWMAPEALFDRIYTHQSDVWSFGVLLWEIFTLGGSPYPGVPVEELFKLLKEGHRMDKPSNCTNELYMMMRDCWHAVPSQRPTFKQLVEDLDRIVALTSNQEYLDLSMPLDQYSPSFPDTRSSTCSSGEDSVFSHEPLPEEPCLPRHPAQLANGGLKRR
# GRK6 (human), sequence (P43250 whole entry, looked up): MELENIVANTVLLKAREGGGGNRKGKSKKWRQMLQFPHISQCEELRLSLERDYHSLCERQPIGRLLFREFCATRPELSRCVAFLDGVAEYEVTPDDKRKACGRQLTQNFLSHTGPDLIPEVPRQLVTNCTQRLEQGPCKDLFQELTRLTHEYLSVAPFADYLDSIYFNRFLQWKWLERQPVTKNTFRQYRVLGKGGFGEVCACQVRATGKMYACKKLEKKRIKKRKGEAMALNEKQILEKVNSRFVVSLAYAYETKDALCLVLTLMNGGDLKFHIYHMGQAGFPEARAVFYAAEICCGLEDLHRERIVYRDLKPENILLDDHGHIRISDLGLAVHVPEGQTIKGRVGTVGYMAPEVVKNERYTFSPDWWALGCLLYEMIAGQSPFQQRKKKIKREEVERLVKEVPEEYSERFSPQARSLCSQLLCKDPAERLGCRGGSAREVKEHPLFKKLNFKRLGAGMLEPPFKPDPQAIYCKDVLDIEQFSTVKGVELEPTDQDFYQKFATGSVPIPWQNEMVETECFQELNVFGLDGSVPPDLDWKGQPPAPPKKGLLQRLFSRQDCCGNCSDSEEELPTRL
# SGK1 (human), sequence (O00141 whole entry, looked up): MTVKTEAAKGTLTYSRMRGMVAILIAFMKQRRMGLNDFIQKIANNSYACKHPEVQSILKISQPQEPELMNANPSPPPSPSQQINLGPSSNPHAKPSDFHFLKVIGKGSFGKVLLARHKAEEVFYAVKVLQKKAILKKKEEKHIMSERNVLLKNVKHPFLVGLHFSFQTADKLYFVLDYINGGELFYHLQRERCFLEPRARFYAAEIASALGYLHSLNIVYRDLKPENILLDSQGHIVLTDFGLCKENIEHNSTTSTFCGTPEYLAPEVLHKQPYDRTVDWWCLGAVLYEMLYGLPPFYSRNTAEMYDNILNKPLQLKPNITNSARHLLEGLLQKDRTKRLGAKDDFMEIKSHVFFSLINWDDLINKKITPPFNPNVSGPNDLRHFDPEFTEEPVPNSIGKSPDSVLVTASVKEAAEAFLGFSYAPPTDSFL
# PRKCQ (human), sequence (Q04759 whole entry, looked up): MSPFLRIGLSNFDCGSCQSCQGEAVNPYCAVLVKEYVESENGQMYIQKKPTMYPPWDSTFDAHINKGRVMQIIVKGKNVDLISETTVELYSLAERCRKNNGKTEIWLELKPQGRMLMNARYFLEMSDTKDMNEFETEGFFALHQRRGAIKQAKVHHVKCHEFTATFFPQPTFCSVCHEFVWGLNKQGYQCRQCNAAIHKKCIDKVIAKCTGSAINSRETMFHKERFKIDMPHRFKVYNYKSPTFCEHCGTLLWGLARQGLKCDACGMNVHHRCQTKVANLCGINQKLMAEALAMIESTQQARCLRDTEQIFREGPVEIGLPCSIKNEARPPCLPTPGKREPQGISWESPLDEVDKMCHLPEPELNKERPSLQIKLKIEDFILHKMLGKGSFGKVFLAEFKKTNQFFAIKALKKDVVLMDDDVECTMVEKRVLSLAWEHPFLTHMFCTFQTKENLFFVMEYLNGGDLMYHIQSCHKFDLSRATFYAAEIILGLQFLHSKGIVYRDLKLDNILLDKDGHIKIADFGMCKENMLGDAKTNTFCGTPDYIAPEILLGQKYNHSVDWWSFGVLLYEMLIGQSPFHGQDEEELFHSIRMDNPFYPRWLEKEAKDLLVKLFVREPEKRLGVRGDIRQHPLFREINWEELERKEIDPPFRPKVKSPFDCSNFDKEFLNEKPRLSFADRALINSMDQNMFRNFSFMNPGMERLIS
# RPS6KB1 (human), sequence (P23443 whole entry, looked up): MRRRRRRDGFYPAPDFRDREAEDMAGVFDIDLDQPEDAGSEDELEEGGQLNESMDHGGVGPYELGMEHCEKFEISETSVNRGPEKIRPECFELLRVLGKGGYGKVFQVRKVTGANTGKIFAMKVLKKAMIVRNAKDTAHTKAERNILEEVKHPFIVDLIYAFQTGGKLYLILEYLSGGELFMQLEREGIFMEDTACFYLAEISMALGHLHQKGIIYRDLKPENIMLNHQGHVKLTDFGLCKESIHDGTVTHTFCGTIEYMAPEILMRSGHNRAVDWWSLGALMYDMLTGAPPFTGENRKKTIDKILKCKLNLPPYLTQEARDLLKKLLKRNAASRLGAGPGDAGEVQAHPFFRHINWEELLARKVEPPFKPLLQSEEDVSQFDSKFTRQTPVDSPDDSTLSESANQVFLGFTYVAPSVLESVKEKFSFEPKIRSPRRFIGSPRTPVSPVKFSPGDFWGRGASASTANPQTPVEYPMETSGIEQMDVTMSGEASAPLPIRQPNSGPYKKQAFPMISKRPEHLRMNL
compound,measurement,setting,value
Nc1cc(C(F)(F)F)c(-c2cc(N3CCOCC3)nc(N3CCOCC3)n2)cn1,inhibition,FYN (human),9%
same,inhibition,[1],1%
same,inhibition,CSNK1A1 (human),-1%
same,inhibition,CSNK1D (human),4%
same,inhibition,[2],11%
same,inhibition,PAK6 (human),0%
same,inhibition,RET (human),-4%
same,inhibition,FLT4 (human),2%
same,inhibition,PRKX (human),0%
same,inhibition,CLK1 (human),32%
same,inhibition,MAPKAPK2 (human),-4%
same,inhibition,RPS6KB1 (human),8%
same,inhibition,TBK1 (human),7%
same,inhibition,EPHB4 (human),-4%
same,inhibition,PRKCZ (human),2%
same,inhibition,NTRK3 (human),4%
same,inhibition,FGFR1 (human),4%
same,inhibition,MAP4K2 (human),6%
same,inhibition,DYRK4 (human),3%
same,inhibition,MATK (human),0%
same,inhibition,[3],3%
same,inhibition,PRKCQ (human),5%
same,inhibition,EPHA4 (human),9%
same,inhibition,[4],6%
same,inhibition,PDGFRA (human),5%
same,inhibition,GRK6 (human),4%
same,inhibition,FGFR4 (human),5%
same,inhibition,MAPK11 (human),4%
same,inhibition,YES1 (human),12%
same,inhibition,MAP2K1 (human),4%
same,inhibition,RPS6KA4 KD1 KD2 (human),6%
same,inhibition,SGK1 (human),25%
same,inhibition,PIM2 (human),3%
same,inhibition,[5],13%
same,inhibition,PDPK1 (human),4%
same,inhibition,CSNK2A2 (human),-2%
same,inhibition,ADRBK2 (human),2%
same,inhibition,MERTK (human),3%
same,inhibition,EPHB2 (human),0%
same,inhibition,PIM1 (human),6%
